Values after ≈ are worked out from the molar mass of the structure shown.
Legend:
Assay type in all cases: functional
Bactrocera dorsalis [1] = assay: Insecticidal activity against adult Bactrocera dorsalis QY07 assessed as mortality after 24 hr; conditions: QY07, 24 h
Bactrocera dorsalis [2] = assay: Insecticidal activity against adult Bactrocera dorsalis HY07 assessed as mortality after 24 hr; conditions: HY07, 24 h
Bactrocera dorsalis [3] = assay: Insecticidal activity against adult Bactrocera dorsalis HK07 assessed as mortality after 24 hr; conditions: HK07, 24 h
Bactrocera dorsalis [4] = assay: Insecticidal activity against adult Bactrocera dorsalis YJ07 assessed as mortality after 24 hr; conditions: YJ07, 24 h
Bactrocera dorsalis [5] = assay: Insecticidal activity against adult Bactrocera dorsalis NN07 assessed as mortality after 24 hr; conditions: NN07, 24 h
Bactrocera dorsalis [6] = assay: Insecticidal activity against adult Bactrocera dorsalis CS07 assessed as mortality after 24 hr; conditions: CS07, 24 h
Bactrocera dorsalis [7] = assay: Insecticidal activity against adult Bactrocera dorsalis FZ07 assessed as mortality after 24 hr; conditions: FZ07, 24 h
Bactrocera dorsalis [8] = assay: Insecticidal activity against adult Bactrocera dorsalis WX07 assessed as mortality after 24 hr; conditions: WX07, 24 h
Bactrocera dorsalis [9] = assay: Insecticidal activity against adult Bactrocera dorsalis assessed as mortality after 24 hr
Bactrocera dorsalis [10] = assay: Resistance ratio of LC50 for adult Bactrocera dorsalis T-R-48 to LC50 for adult Bactrocera dorsalis
Bactrocera dorsalis [11] = assay: Resistance ratio of LC50 for adult Bactrocera dorsalis T-R-45 to LC50 for adult Bactrocera dorsalis
Bactrocera dorsalis [12] = assay: Insecticidal activity against adult Bactrocera dorsalis T-R-48 assessed as mortality
Bactrocera dorsalis [13] = assay: Insecticidal activity against adult Bactrocera dorsalis T-R-45 assessed as mortality
Bactrocera dorsalis [14] = assay: Resistance ratio of LC50 for adult Bactrocera dorsalis HZ08 to LC50 for adult Bactrocera dorsalis after 24 hr
Bactrocera dorsalis [15] = assay: Resistance ratio of LC50 for adult Bactrocera dorsalis CH08 to LC50 for adult Bactrocera dorsalis after 24 hr
Bactrocera dorsalis [16] = assay: Resistance ratio of LC50 for adult Bactrocera dorsalis GZ08 to LC50 for adult Bactrocera dorsalis after 24 hr
Bactrocera dorsalis [17] = assay: Resistance ratio of LC50 for adult Bactrocera dorsalis QY08 to LC50 for adult Bactrocera dorsalis after 24 hr
Bactrocera dorsalis [18] = assay: Resistance ratio of LC50 for adult Bactrocera dorsalis MM08 to LC50 for adult Bactrocera dorsalis after 24 hr
Bactrocera dorsalis [19] = assay: Resistance ratio of LC50 for adult Bactrocera dorsalis HY08 to LC50 for adult Bactrocera dorsalis after 24 hr
Bactrocera dorsalis [20] = assay: Resistance ratio of LC50 for adult Bactrocera dorsalis NN08 to LC50 for adult Bactrocera dorsalis after 24 hr
Bactrocera dorsalis [21] = assay: Resistance ratio of LC50 for adult Bactrocera dorsalis HK08 to LC50 for adult Bactrocera dorsalis after 24 hr
Bactrocera dorsalis [22] = assay: Resistance ratio of LC50 for adult Bactrocera dorsalis FZ08 to LC50 for adult Bactrocera dorsalis after 24 hr
Bactrocera dorsalis [23] = assay: Resistance ratio of LC50 for adult Bactrocera dorsalis YJ08 to LC50 for adult Bactrocera dorsalis after 24 hr
Bactrocera dorsalis [24] = assay: Resistance ratio of LC50 for adult Bactrocera dorsalis WX08 to LC50 for adult Bactrocera dorsalis after 24 hr
Bactrocera dorsalis [25] = assay: Resistance ratio of LC50 for adult Bactrocera dorsalis NN07 to LC50 for adult Bactrocera dorsalis after 24 hr
Bactrocera dorsalis [26] = assay: Resistance ratio of LC50 for adult Bactrocera dorsalis HK07 to LC50 for adult Bactrocera dorsalis after 24 hr
Bactrocera dorsalis [27] = assay: Resistance ratio of LC50 for adult Bactrocera dorsalis FZ07 to LC50 for adult Bactrocera dorsalis after 24 hr
Bactrocera dorsalis [28] = assay: Resistance ratio of LC50 for adult Bactrocera dorsalis YJ07 to LC50 for adult Bactrocera dorsalis after 24 hr
Bactrocera dorsalis [29] = assay: Resistance ratio of LC50 for adult Bactrocera dorsalis WX07 to LC50 for adult Bactrocera dorsalis after 24 hr
Bactrocera dorsalis [30] = assay: Resistance ratio of LC50 for adult Bactrocera dorsalis CS07 to LC50 for adult Bactrocera dorsalis after 24 hr
Bactrocera dorsalis [31] = assay: Resistance ratio of LC50 for adult Bactrocera dorsalis CS08 to LC50 for adult Bactrocera dorsalis after 24 hr
Bactrocera dorsalis [32] = assay: Resistance ratio of LC50 for adult Bactrocera dorsalis HZ07 to LC50 for adult Bactrocera dorsalis after 24 hr
Bactrocera dorsalis [33] = assay: Resistance ratio of LC50 for adult Bactrocera dorsalis ZJ07 to LC50 for adult Bactrocera dorsalis after 24 hr
Bactrocera dorsalis [34] = assay: Resistance ratio of LC50 for adult Bactrocera dorsalis CH07 to LC50 for adult Bactrocera dorsalis after 24 hr
Bactrocera dorsalis [35] = assay: Resistance ratio of LC50 for adult Bactrocera dorsalis GZ07 to LC50 for adult Bactrocera dorsalis after 24 hr
Bactrocera dorsalis [36] = assay: Resistance ratio of LC50 for adult Bactrocera dorsalis MM07 to LC50 for adult Bactrocera dorsalis after 24 hr
Bactrocera dorsalis [37] = assay: Resistance ratio of LC50 for adult Bactrocera dorsalis HY07 to LC50 for adult Bactrocera dorsalis after 24 hr
Bactrocera dorsalis [38] = assay: Resistance ratio of LC50 for adult Bactrocera dorsalis QY07 to LC50 for adult Bactrocera dorsalis after 24 hr
Bactrocera dorsalis [39] = assay: Insecticidal activity against adult Bactrocera dorsalis GZ08 assessed as mortality after 24 hr; conditions: GZ08, 24 h
Bactrocera dorsalis [40] = assay: Insecticidal activity against adult Bactrocera dorsalis HZ08 assessed as mortality after 24 hr; conditions: HZ08, 24 h
Bactrocera dorsalis [41] = assay: Insecticidal activity against adult Bactrocera dorsalis CH08 assessed as mortality after 24 hr; conditions: CH08, 24 h
Bactrocera dorsalis [42] = assay: Insecticidal activity against adult Bactrocera dorsalis QY08 assessed as mortality after 24 hr; conditions: QY08, 24 h
Bactrocera dorsalis [43] = assay: Insecticidal activity against adult Bactrocera dorsalis MM08 assessed as mortality after 24 hr; conditions: MM08, 24 h
Bactrocera dorsalis [44] = assay: Insecticidal activity against adult Bactrocera dorsalis HK08 assessed as mortality after 24 hr; conditions: HK08, 24 h
Bactrocera dorsalis [45] = assay: Insecticidal activity against adult Bactrocera dorsalis HY08 assessed as mortality after 24 hr; conditions: HY08, 24 h
Bactrocera dorsalis [46] = assay: Insecticidal activity against adult Bactrocera dorsalis YJ08 assessed as mortality after 24 hr; conditions: YJ08, 24 h
Bactrocera dorsalis [47] = assay: Insecticidal activity against adult Bactrocera dorsalis NN08 assessed as mortality after 24 hr; conditions: NN08, 24 h
Bactrocera dorsalis [48] = assay: Insecticidal activity against adult Bactrocera dorsalis FZ08 assessed as mortality after 24 hr; conditions: FZ08, 24 h
Bactrocera dorsalis [49] = assay: Insecticidal activity against adult Bactrocera dorsalis WX08 assessed as mortality after 24 hr; conditions: WX08, 24 h
Bactrocera dorsalis [50] = assay: Insecticidal activity against adult Bactrocera dorsalis CS08 assessed as mortality after 24 hr; conditions: CS08, 24 h
Bactrocera dorsalis [51] = assay: Insecticidal activity against adult Bactrocera dorsalis HZ07 assessed as mortality after 24 hr; conditions: HZ07, 24 h
Bactrocera dorsalis [52] = assay: Insecticidal activity against adult Bactrocera dorsalis ZJ07 assessed as mortality after 24 hr; conditions: ZJ07, 24 h
Bactrocera dorsalis [53] = assay: Insecticidal activity against adult Bactrocera dorsalis GZ07 assessed as mortality after 24 hr; conditions: GZ07, 24 h
Bactrocera dorsalis [54] = assay: Insecticidal activity against adult Bactrocera dorsalis MM07 assessed as mortality after 24 hr; conditions: MM07, 24 h
Bactrocera dorsalis [55] = assay: Insecticidal activity against adult Bactrocera dorsalis CH07 assessed as mortality after 24 hr; conditions: CH07, 24 h

## COP(=O)(OC)C(O)C(Cl)(Cl)Cl (stereo not drawn) [TRICHLORFON]
Bactrocera dorsalis [1]
  LC50: 18.5 µg/mL (≈ 71.9 µM)
Bactrocera dorsalis [2]
  LC50: 41.4 µg/mL (≈ 161 µM)
Bactrocera dorsalis [3]
  LC50: 14.1 µg/mL (≈ 54.7 µM)
Bactrocera dorsalis [4]
  LC50: 8.43 µg/mL (≈ 32.7 µM)
Bactrocera dorsalis [5]
  LC50: 25.1 µg/mL (≈ 97.4 µM)
Bactrocera dorsalis [6]
  LC50: 27.2 µg/mL (≈ 106 µM)
Bactrocera dorsalis [7]
  LC50: 19.8 µg/mL (≈ 76.8 µM)
Bactrocera dorsalis [8]
  LC50: 31.2 µg/mL (≈ 121 µM)
Bactrocera dorsalis [9]
  LC90: 2.64 µg/mL (≈ 10.3 µM)
Bactrocera dorsalis [9]; Bactrocera dorsalis, 24 h
  LC50: 1.61 µg/mL (≈ 6.25 µM)
Bactrocera dorsalis [10]
  RatioLC50: 71.58
Bactrocera dorsalis [11]
  RatioLC50: 58.34
Bactrocera dorsalis [12]
  LC90: 635.27 µg/mL (≈ 2470 µM)
Bactrocera dorsalis [12]; Bactrocera dorsalis, T-R-48
  LC50: 115 µg/mL (≈ 448 µM)
Bactrocera dorsalis [13]
  LC90: 322.86 µg/mL (≈ 1250 µM)
Bactrocera dorsalis [13]; Bactrocera dorsalis, T-R-45
  LC50: 93.9 µg/mL (≈ 365 µM)
Bactrocera dorsalis [14]
  RatioLC50: 1.51
Bactrocera dorsalis [15]
  RatioLC50: 17.91
Bactrocera dorsalis [16]
  RatioLC50: 8.87
Bactrocera dorsalis [17]
  RatioLC50: 7.34
Bactrocera dorsalis [18]
  RatioLC50: 70.45
Bactrocera dorsalis [19]
  RatioLC50: 21.19
Bactrocera dorsalis [20]
  RatioLC50: 7.39
Bactrocera dorsalis [21]
  RatioLC50: 1.37
Bactrocera dorsalis [22]
  RatioLC50: 20.2
Bactrocera dorsalis [23]
  RatioLC50: 5.22
Bactrocera dorsalis [24]
  RatioLC50: 14.13
Bactrocera dorsalis [25]
  RatioLC50: 15.62
Bactrocera dorsalis [26]
  RatioLC50: 8.77
Bactrocera dorsalis [27]
  RatioLC50: 12.32
Bactrocera dorsalis [28]
  RatioLC50: 5.25
Bactrocera dorsalis [29]
  RatioLC50: 19.46
Bactrocera dorsalis [30]
  RatioLC50: 16.96
Bactrocera dorsalis [31]
  RatioLC50: 17.56
Bactrocera dorsalis [32]
  RatioLC50: 16.72
Bactrocera dorsalis [33]
  RatioLC50: 18.51
Bactrocera dorsalis [34]
  RatioLC50: 12.71
Bactrocera dorsalis [35]
  RatioLC50: 19.8
Bactrocera dorsalis [36]
  RatioLC50: 17.78
Bactrocera dorsalis [37]
  RatioLC50: 25.79
Bactrocera dorsalis [38]
  RatioLC50: 11.53
Bactrocera dorsalis [39]
  LC50: 14.2 µg/mL (≈ 55.3 µM)
Bactrocera dorsalis [40]
  LC50: 2.43 µg/mL (≈ 9.44 µM)
Bactrocera dorsalis [41]
  LC50: 28.7 µg/mL (≈ 112 µM)
Bactrocera dorsalis [42]
  LC50: 11.8 µg/mL (≈ 45.8 µM)
Bactrocera dorsalis [43]
  LC50: 113 µg/mL (≈ 439 µM)
Bactrocera dorsalis [44]
  LC50: 2.21 µg/mL (≈ 8.58 µM)
Bactrocera dorsalis [45]
  LC50: 34 µg/mL (≈ 132 µM)
Bactrocera dorsalis [46]
  LC50: 8.38 µg/mL (≈ 32.6 µM)
Bactrocera dorsalis [47]
  LC50: 11.9 µg/mL (≈ 46.1 µM)
Bactrocera dorsalis [48]
  LC50: 32.4 µg/mL (≈ 126 µM)
Bactrocera dorsalis [49]
  LC50: 22.7 µg/mL (≈ 88.1 µM)
Bactrocera dorsalis [50]
  LC50: 28.2 µg/mL (≈ 110 µM)
Bactrocera dorsalis [51]
  LC50: 26.8 µg/mL (≈ 104 µM)
Bactrocera dorsalis [52]
  LC50: 29.7 µg/mL (≈ 115 µM)
Bactrocera dorsalis [53]
  LC50: 31.8 µg/mL (≈ 123 µM)
Bactrocera dorsalis [54]
  LC50: 28.5 µg/mL (≈ 111 µM)
Bactrocera dorsalis [55]
  LC50: 20.4 µg/mL (≈ 79.3 µM)

Reference: ChEMBL document CHEMBL3046669, “Insecticide resistance of the oriental fruit fly, Bactrocera dorsalis (Hendel) (Diptera: Tephritidae), in mainland China” (2011)
